Data on 4 compounds can be found in patent publication US20090181972A1, “Novel Inhibitors of Cysteine Proteases, the Pharmaceutical Compositions Thereof and their Therapeutic Applications” (priority 2005, published 2009).

As usually defined, the IC50 is the midpoint of a concentration-inhibition curve. Low readings indicate greater potency in that assay, high ones weaker potency in that assay.

One assay addresses T1, Caspase 3 (Homo sapiens, UniProt P42574).
T1 sequence (P42574 29-175 limits assumed): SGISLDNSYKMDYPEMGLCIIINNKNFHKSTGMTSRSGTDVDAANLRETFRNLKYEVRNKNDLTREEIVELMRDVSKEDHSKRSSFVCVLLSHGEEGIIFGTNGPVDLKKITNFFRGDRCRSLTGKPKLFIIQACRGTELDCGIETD
T1 sequence (P42574 176-277 limits assumed): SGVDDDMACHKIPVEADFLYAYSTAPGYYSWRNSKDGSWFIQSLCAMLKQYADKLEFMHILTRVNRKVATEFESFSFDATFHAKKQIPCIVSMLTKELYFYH
The experiment in a line: Caspase 3 activity assay. To be noted: 500 nM Ac-DEVD-AMC, 3.2 nM enzyme; pre-incubated 30 minutes at 25° C., 60 minutes at 37° C.; sigmoidal fit. It counts as biochemical. The protocol: (§1) Caspase 3 was diluted in Caspase 3 buffer (100 mM Hepes pH 7.5; 10% sucrose; 0.1% CHAPS). Compounds stocks (100 mM) were stored at −20° C. in DMSO. Compounds were tested at the following final concentrations: 100 μM; 33.3 μM; 11.1 μM; 3.7 μM; 1.23 μM; 412 nM; 137 nM; 45.7 nM; 15.2 nM; 5 nM. Reactions were performed as duplicates in Black LJL 96 well plates (HE microplates; Molecular Devices; 20 μl final reaction volume). The substrate concentration for caspase 3 specificity assay was 500 nM (Ac-DEVD-AMC; Promega). The concentration of the enzyme (Caspase 3) in specificity assays was 3.2 nM. The concentrations were determined in order to perform specificity assays under initial velocities at fixed substrate concentration. Compounds were pre-incubated with enzymes for 30 minutes at 25° C. Reactions were initiated by addition of substrate to the plates containing the enzymes (+/− compounds) diluted in assay buffer. Reactions were incubated for 60 minutes at 37° C. Reactions were stopped by adding acetic acid (100 mM final). Readings were performed on a Pherastar Fluorescent Reader (BMG). δ Emission 380 nm; δ Excitation=460 nm. Data (mean values +/− standard deviation) were analyzed as % of control (no compound) and plotted as percentage versus the Log of the compound concentration using GraphPad (Prism). Data were fitted to a sigmoidal model (variable slope).

Another assay deals with T2, Uch-L3 (Homo sapiens, UniProt P15374).
T2 sequence (P15374 1-230): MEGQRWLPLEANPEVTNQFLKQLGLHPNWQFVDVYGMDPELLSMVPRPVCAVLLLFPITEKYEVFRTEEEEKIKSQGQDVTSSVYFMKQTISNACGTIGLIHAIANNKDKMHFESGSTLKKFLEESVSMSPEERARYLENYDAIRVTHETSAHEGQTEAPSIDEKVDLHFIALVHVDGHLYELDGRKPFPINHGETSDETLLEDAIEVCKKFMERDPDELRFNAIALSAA
The experiment in a line: UCH-L3 activity assay. As to conditions: 400 nM Ub-AMC, 13 pM enzyme; pre-incubated 30 minutes at 25° C., 60 minutes at 37° C.; sigmoidal fit. It counts as biochemical. The protocol: Uch-L3 was diluted in USP buffer (50 mM Tris HCl; 0.5 mM EDTA; 5 mM DTT; 0.01% Triton X-100; Bovine Serum Albumin 0.05 mg.ml^−1 pH 7.6). Compounds stocks (100 mM) were stored at −20° C. in DMSO. Compounds were tested at the following final concentrations: 100 μM; 33.3 μM; 11.1 μM; 3.7 μM; 1.23 μM; 412 nM; 137 nM; 45.7 nM; 15.2 nM; 5 nM.
as §1, with “Reactions” for “Caspase 3 was diluted in Caspase 3 buffer (100 mM Hepes pH 7.5; 10% sucrose; 0.1% CHAPS). Compounds stocks (100 mM) were stored at −20° C. in DMSO. Compounds were tested at the following final concentrations: 100 μM; 33.3 μM; 11.1 μM; 3.7 μM; 1.23 μM; 412 nM; 137 nM; 45.7 nM; 15.2 nM; 5 nM. Reactions”, “Uch-L3” for “caspase 3 specificity assay”, “400” for “500”, “Ub-AMC (Boston Biochem).” for “(Ac-DEVD-AMC; Promega).”, “(Uch-L3)” for “(Caspase 3)”, “13 pM.” for “3.2 nM.”

Turning to `CC(C)c1nnc2nc3c(nn12)C(=O)c1ccccc1-3` [Example 1l/A, 1-lsopropyl-2,3,4,10,10a-pentaaza-cyclopenta[b]fluoren-9-one], the IC50 against Caspase 3 came out at 5000 nM; at Uch-L3, 800 nM.
The matching figures for `CCc1nnc2nc3c(nn12)C(=O)c1cc(OC)c(OC)cc1-3` [Example 5b/A, 1-Ethyl-6,7-dimethoxy-2,3,4,10,10a-pentaaza-cyclopenta[b]fluoren-9-one]: 5200 nM and 1800 nM.
For `CCc1nnc2nc3c(nn12)-c1cc(OC)c(OC)cc1C3=O` [Example 5b/B, 3-Ethyl-6,7-dimethoxy-1,2,3a,4,10-pentaaza-cyclopenta[b]fluoren-9-one], in that order: 314 nM and 131 nM.
The matching figures for “6-(7)-Chloro-1-methyl-2,3,4,10,10a-pentaaza-cyclopenta[b]fluoren-9-one [Example 3/A]”: 1510 nM and 323 nM.
